pEC50, pIC50: −log10 of the molar value. ≈ marks a conversion by molar mass, not a printed value.
Key:
Cannabinoid receptor 1 [1] = biological target: T1, Cannabinoid receptor 1 (Homo sapiens, UniProt P21554); assay: Antagonist activity at human CB1 receptor expressed in CHO cells assessed as inhibition of forskolin-stimulated cAMP formation preincubated with compound for 10 mins followed by forskolin induction and measured after 30 mins by HTRF analysis; format: functional, cell-based
Cannabinoid receptor 1 [2] = biological target: T1, Cannabinoid receptor 1; assay: Antagonist activity at human CB1 receptor expressed in CHO cells assessed as inhibition of forskolin-stimulated cAMP formation by measuring maximum inhibition preincubated with compound for 10 mins followed by forskolin induction and measured after 30 mins by HTRF analysis relative to control; format: functional, cell-based; conditions: filed as antagonist, time 40.0 min
Cannabinoid receptor 2 [3] = biological target: T2, Cannabinoid receptor 2 (Homo sapiens, UniProt P34972); assay: Partial agonist activity at human CB2 receptor expressed in CHO cells assessed as forskolin-stimulated cAMP formation preincubated with compound for 10 mins followed by forskolin induction and measured after 30 mins by HTRF analysis; format: functional, cell-based
T2 sequence (P34972 whole entry): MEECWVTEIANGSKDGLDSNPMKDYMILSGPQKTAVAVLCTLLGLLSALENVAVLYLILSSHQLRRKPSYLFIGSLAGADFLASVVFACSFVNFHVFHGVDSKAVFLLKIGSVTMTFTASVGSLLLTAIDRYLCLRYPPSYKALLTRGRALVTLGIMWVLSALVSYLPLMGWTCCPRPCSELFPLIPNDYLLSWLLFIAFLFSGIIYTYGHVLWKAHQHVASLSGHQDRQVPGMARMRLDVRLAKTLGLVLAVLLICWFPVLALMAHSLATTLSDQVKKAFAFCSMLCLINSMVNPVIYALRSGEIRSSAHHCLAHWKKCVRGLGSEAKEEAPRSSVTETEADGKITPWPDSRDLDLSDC

Cannabinoid receptor 2 [4] = biological target: T2, Cannabinoid receptor 2; assay: Partial agonist activity at human CB2 receptor expressed in CHO cells assessed as forskolin-stimulated cAMP formation preincubated with compound for 10 mins followed by forskolin induction and measured after 30 mins by HTRF analysis relative to control; format: functional, cell-based; conditions: filed as partial agonist, time 40.0 min
Cannabinoid receptor 2 [5] = biological target: T2, Cannabinoid receptor 2; assay: Agonist activity at human CB2 receptor expressed in CHO cells assessed as forskolin-stimulated cAMP formation preincubated with compound for 10 mins followed by forskolin induction and measured after 30 mins by HTRF analysis; format: functional, cell-based
[6] = biological target: T3, 5-hydroxytryptamine receptor 1A (Homo sapiens, UniProt P08908); assay: Agonist activity at human 5HT1A receptor expressed in HEK293 cells assessed as forskolin-stimulated cAMP formation preincubated with compound for 10 mins followed by forskolin induction and measured after 30 mins by HTRF analysis; format: functional, cell-based
T3 sequence (P08908 whole entry): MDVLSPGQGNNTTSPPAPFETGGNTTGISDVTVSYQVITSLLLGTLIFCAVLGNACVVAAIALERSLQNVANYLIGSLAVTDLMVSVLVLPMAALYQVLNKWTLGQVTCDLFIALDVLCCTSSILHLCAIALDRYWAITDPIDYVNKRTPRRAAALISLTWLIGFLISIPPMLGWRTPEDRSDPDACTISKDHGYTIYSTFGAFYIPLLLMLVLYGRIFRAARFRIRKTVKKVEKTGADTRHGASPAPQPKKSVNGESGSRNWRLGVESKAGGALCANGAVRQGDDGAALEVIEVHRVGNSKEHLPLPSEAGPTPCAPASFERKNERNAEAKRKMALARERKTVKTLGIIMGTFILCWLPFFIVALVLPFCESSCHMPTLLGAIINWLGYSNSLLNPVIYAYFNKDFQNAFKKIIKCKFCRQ

[7] = biological target: T4, 5-hydroxytryptamine receptor 1A (Homo sapiens) (UniProt P08908); assay: Agonist activity at human 5HT1A receptor expressed in HEK293 cells assessed as forskolin-stimulated cAMP formation preincubated with compound for 10 mins followed by forskolin induction and measured after 30 mins by HTRF analysis relative to control; format: functional, cell-based; conditions: filed as agonist, time 40.0 min
T4 sequence (whole entry): T3 sequence (P08908 whole entry)

[8] = Solubility of compound in phosphate buffer at pH 6.8 by HPLC analysis; format: physicochemical
[9] = Half life in ICR mouse at 25 mg/kg, po measured upto 8 hrs by LC-MS/MS analysis; format: ADME, organism-based; conditions: in vivo
[10] = Tmax in ICR mouse at 25 mg/kg, po measured upto 8 hrs by LC-MS/MS analysis; format: ADME, organism-based; conditions: in vivo
[11] = Cmax in ICR mouse at 25 mg/kg, po measured upto 8 hrs by LC-MS/MS analysis; format: ADME, organism-based; conditions: in vivo
[12] = AUClast in ICR mouse at 25 mg/kg, po measured upto 8 hrs by LC-MS/MS analysis; format: ADME, organism-based; conditions: in vivo
[13] = Cmax in ICR mouse brain at 25 mg/kg, po measured upto 8 hrs by LC-MS/MS analysis; format: ADME, organism-based
Mus musculus [14] = assay: Anxiolytic activity against stress-induced hyperthermia in ip dosed ICR mouse assessed as reduction in basal core rectal temperature measured for 60 mins; format: functional, organism-based; conditions: dose 3-10 mg/kg
Mus musculus [15] = assay: Anxiolytic activity against stress-induced hyperthermia in ip dosed ICR mouse assessed as reduction in delta temperature measured for 60 mins; format: functional, organism-based; conditions: dose 1-10 mg/kg
Cannabinoid receptor 2 [16] = biological target: T2, Cannabinoid receptor 2; assay: Agonist activity at CB2 receptor (unknown origin); format: functional

T1 sequence (P21554 whole entry): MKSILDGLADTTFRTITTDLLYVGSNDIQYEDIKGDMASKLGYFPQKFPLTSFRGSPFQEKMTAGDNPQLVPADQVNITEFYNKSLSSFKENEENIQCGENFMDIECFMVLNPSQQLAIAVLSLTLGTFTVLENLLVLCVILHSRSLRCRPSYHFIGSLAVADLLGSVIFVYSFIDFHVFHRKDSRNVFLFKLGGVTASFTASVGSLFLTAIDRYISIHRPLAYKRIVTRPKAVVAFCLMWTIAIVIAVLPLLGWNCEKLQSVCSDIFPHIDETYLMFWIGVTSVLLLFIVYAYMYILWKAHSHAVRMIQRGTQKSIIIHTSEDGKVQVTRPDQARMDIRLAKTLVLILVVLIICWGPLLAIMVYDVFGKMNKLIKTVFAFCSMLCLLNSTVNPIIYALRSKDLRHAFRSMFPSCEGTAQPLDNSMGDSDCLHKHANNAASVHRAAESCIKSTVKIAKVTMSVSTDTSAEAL

Row | Structure (SMILES) | pIC50 (Cannabinoid receptor 1 [1]) | Imax (Cannabinoid receptor 1 [2]) [%] | pEC50 (Cannabinoid receptor 2 [3]) | Emax (Cannabinoid receptor 2 [4]) [%] | pEC50 (Cannabinoid receptor 2 [5]) | half-life [9] [h] | Tmax [10] [h] | Cmax [11] [ng/mL] | AUC(0-t) at 8 h [12] [ng·h/mL] | other results
1 | C=C(C)[C@@H]1CCC(C)=C[C@H]1c1c(O)cc(C(=O)CCCC)cc1O | 5.00 | 82.9 | 5.33 | 75.7 | – | – | – | – | – | –
2 | C=C(C)[C@@H]1CCC(C)=C[C@H]1c1c(O)cc(CCCCC)c(C(=O)NC2CC2)c1O | 5.64 | 88.9 | – | – | < 8.00 | – | – | – | – | –
3 | C=C(C)[C@@H]1CCC(C)=C[C@H]1c1c(O)cc(CCCCC)cc1O [CANNABIDIOL] | – | 88.3 | – | – | – | 4.3 | 0.7 | 145 | 289 | pEC50 [6]: 5.38; Emax [7]: 64%; solubility [8]: 0.04 µg/mL (≈ 0.127 µM); Cmax [13]: 239 ng/g
4 | C=C(C)[C@@H]1CCC(C)=C[C@H]1c1c(O)cc(C2CCCCC2)cc1O | – | – | 7.26 | 62.7 | – | 2.7 | 0.8 | 216 | 616 | –
5 | CN1C(=O)CN=C(c2ccccc2)c2cc(Cl)ccc21 | – | – | – | – | – | – | – | – | – | Activity (Mus musculus [14]): Dose-Dependent Effect; Activity (Mus musculus [15]): Dose-Dependent Effect
6 | Cc1ccc(CC2CN(C(=O)C3C(C)(C)[C@@H]4CC[C@]3(C)C4)N=C2c2ccc(Cl)c(C)c2)cc1 (stereo partly specified) | – | – | – | – | – | – | – | – | – | pEC50 (Cannabinoid receptor 2 [16]): 6.72
7 | C=C(C)[C@@H]1CCC(C)=C[C@H]1c1ccc(C2CC2)c(C(N)=O)c1O | 5.19 | 108 | 6.25 | 44.7 | – | 2.9 | 0.4 | 90.4 | 170 | –
8 | C=C(C)[C@@H]1CCC(C)=C[C@H]1c1c(O)cc(CCCCC)c(C(=O)NCCCCC)c1O | < 5.00 | – | – | – | < 8.00 | – | – | – | – | –
9 | C=C(C)[C@@H]1CCC(C)=C[C@H]1c1c(O)cc(CCCCC)c(C(=O)NC)c1O | 5.59 | 75.3 | – | – | < 8.00 | – | – | – | – | solubility [8]: 0.7 µg/mL (≈ 1.88 µM)
10 | C=C(C)[C@@H]1CCC(C)=C[C@H]1c1c(O)cc(C2(CCCC)CC2)c(C(=O)N(C)C)c1O | 5.57 | 87.2 | 6.12 | 47.2 | – | 1.7 | 0.7 | 62.7 | 115 | –
11 | C=C(C)[C@@H]1CCC(C)=C[C@H]1c1c(O)cc(CCCCC)c(C(=O)NCCN(C)C)c1O | < 5.00 | – | – | – | < 8.00 | – | – | – | – | –
12 | C=C(C)[C@@H]1CCC(C)=C[C@H]1c1c(O)cc(CCCCC)c(C(N)=O)c1O | 5.57 | 86.3 | – | – | < 8.00 | – | – | – | – | solubility [8]: 0.6 µg/mL (≈ 1.68 µM)
13 | C=C(C)[C@@H]1CCC(C)=C[C@H]1c1c(O)cc(C2(CCCC)CC2)c(C(=O)NC)c1O | 5.66 | 91.1 | – | – | < 5.00 | – | – | – | – | –

Reference: ChEMBL document CHEMBL5528023, “Discovery of a CB2 and 5-HT1A receptor dual agonist for the treatment of depression and anxiety” (Eur J Med Chem, 2024)
